# Data reported in patent US8841277B2, “Methods for treating non-small cell lung cancer using 5-azacytidine” (Celgene Corporation, priority 2009, dated 2014).
# Entries after “also recorded” stand apart in the source; their conditions may differ.
# Experiments:
# H1299 cells [1] = experiment: Gene expression microarray analysis, H1299; type: cell-based, human; conditions: 48 hours; for Downregulated Genes: AZA-Specific / DAC-Specific Genes (number) / Upregulated Genes: AZA-Specific / DAC-Specific Genes (number) / Downregulated Genes: Genes in Common (number) / Upregulated Genes: Genes in Common (number): H1299; for Downregulated Genes: Genes in Common (number) / Upregulated Genes: Genes in Common (number): regulated by both AZA and DAC;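 as to Downregulated Genes: AZA-Specific / DAC-Specific Genes (number): drug dose range 0.3 to 3 µM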;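 as to Downregulated Genes: Genes in Common (number): drug dose range 0.3 to 3 µM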;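 as to Upregulated Genes: AZA-Specific / DAC-Specific Genes (number): drug dose range 0.3 to 3 µM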;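 as to Upregulated Genes: Genes in Common (number): drug dose range 0.3 to 3 µM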
# Protocol: Cells were lysed using the TRIzol reagent (Life Technologies Corporation) and total RNA was isolated using miRNeasy (Qiagen). Double-stranded cDNA and biotin-labeled cRNA were synthesized using 100 ng of total RNA using Ambion's MessageAmp Premier RNA Amplification Kit (ABI; Foster City, Calif.). Biotin-labeled cRNA, at 10 μg, was fragmented and hybridized to each human U133A 2.0 genechip (Affymetrix; Santa Clara, Calif.). The GC-RMA algorithm was used for normalization and all analyses were done using GeneSpring 7.3 (Agilent; Santa Clara, Calif.). Averaged signals from biological duplicate samples were used to determine fold change (Treated vs. Untreated), with an absolute fold change of ≧1.7 defining regulated genes. NextBio was used to identify regulated Gene Ontology biogroups from lists of regulated genes. The top 15 biogroups are those with the lowest p-values calculated within NextBio.
# The number of genes modulated in common between the two drugs was low.
# Functional groupings of the modulated genes were determined using Gene Ontology classifications in Nextbio (http://www.nextbio.com/).
# H460 cells [2] = experiment: Cell cycle distribution (NIM-DAPI), H460; type: cell-based
# Description: (§1) These studies examined the cell cycle distribution of NSCLC cells treated with AZA or DAC using NIM-DAPI analysis.
# (§2) For cell cycle distribution, cells were stained with the NIM-DAPI reagent (Beckman Coulter, Inc.; Fullerton, Calif.). For measurement of early- and late-apoptotic cell populations, cells were stained with AnnexinV-FITC and 7-AAD reagents (Beckman Coulter, Inc.). Samples were processed according to manufacturer's instructions and analyzed on a Cell Lab Quanta MPL flow cytometer (Beckman Coulter, Inc.). […] Data were also collected for untreated cells as control.
# H1299 cells [3] = experiment: Cell cycle distribution (NIM-DAPI), H1299; type: cell-based
# Description: as §1, §2
# DNMT1 = DNMT1 protein depletion, H1299; type: cell-based; conditions: for DNMT1 protein levels: dose range
# Protocol: (§3) For western analyses of protein levels, cells were washed with PBS and lysed with RIPA buffer (Cell Signaling Technology, Inc.; Danvers, Mass.) containing 350 mM NaCl and 0.1% SDS. Cell lysates were sonicated with two 5-second bursts under low amplitude (20%) using the Digital Sonic Dismembrator (Thermo Fisher Scientific, Inc.; Waltham, Mass.). Proteins were separated on 4-12% Bis-Tris NuPAGE gels (Life Technologies Corporation) and transferred to nitrocellulose membranes. DNMT1, phos-Histone-H2AX(Ser139), total Histone-H2AX, cleaved-PARP, p21, p53, and alpha-tubulin were detected using the Li-Cor Odyssey imaging system (Li-Cor Biotechnology; Lincoln, Nebr.), following incubation with the appropriate primary and secondary antibodies. The phos-Histone-H2AX(Ser139), cleaved-PARP, and p21 antibodies were from Cell Signaling Technology, Inc. The p53 and total Histone-H2AX (C-20) antibodies were from Santa Cruz Biotechnology, Inc. (Santa Cruz, Calif.). The alpha-tubulin and DNMT1 antibodies were purchased from EMD Chemicals, Inc. (Gibbstown, N.J.) and Abcam, Inc. (Cambridge, Mass.), respectively. The goat anti-Rabbit IRDye 680, goat anti-Mouse IRDye 800CW, and donkey anti-Goat IRDye 800CW secondary antibodies were from Li-Cor Biotechnology.
# Reduced DNMT1 levels were detected in these cell lines as early as 4 hours after drug treatment (FIG. 17).
# H460 cells [4] = experiment: Western analysis of DNA damage and apoptosis markers, H460; type: cell-based; conditions: for Induction of Histone H2AX phosphorylation / Induction of PARP cleavage: 0.3-10 μM; for Induction of Histone H2AX phosphorylation: 24 h, 48 h, up to 72 hour
# Protocol: These studies also examined apoptosis using an assay for PARP cleavage. Cells studied included H460, A549, and H1299 cells.
# as §3
# A549 cells = experiment: Cell viability (CyQuant assay), A549; type: cell-based; conditions: 72 hours; for HillSlope / LogIC50 / IC50: A549 viability, best-fit value; for LogIC50: log(inhibitor) vs. normalized response -- Variable slope; for EC50 / IC50: Homo sapiens; for EC50: A549, read-out: EC50 of effect on viability
# Protocol: (§4) Certain NSCLC cell lines (H460, H1299, A549, and H1975) were purchased from American Type Culture Collection (ATCC; Manassas, Va.). The H23NSCLC cell line was obtained from the National Cancer Institute (NCI; Bethesda, Md.). Cell lines were cultured in their respective media, as recommended by ATCC and NCI. AZA was manufactured at Aptuit (Greenwich, Conn.) for Celgene (Summit, N.J.), while DAC was purchased from Sigma-Aldrich (St. Louis, Mo.). In all experiments, cells were seeded 24 hours before drug treatment and incubated at 37° C./5% CO2, For cell viability assays, H460, H1299, A549, H23, and H1975 cells were seeded in triplicate at 1×10^3, 1×10^3, 1×10^3, 4×10^3, and 4×10^3 cells per well, respectively, in 96-well plates, using 200 μL of medium per well. Fresh drug was added every 24 hours by replacing medium with drug-containing medium. For all other assays, cells were seeded at 0.6-1.2×10^5 cells per well, in 6-well plates, using 4 mL of medium per well, with fresh drug added directly to the medium every 24 hours.
# (§5) Cell viability was assessed using the CyQuant assay (Life Technologies Corporation; Carlsbad, Calif.). Fluorescence was measured with a spectrophotometer (Molecular Devices; Sunnyvale, Calif.), and EC50 values were calculated in Prism® version 5.01 (GraphPad Software, Inc.; La Jolla, Calif.), using results from three independent experiments.
# (§6) The six data sets represent calculations of EC50 values from raw data using Prism®. The standard deviation among the three independent experiments was determined at each drug concentration. For some of the cell lines, Prism® was not able to calculate the EC50 for DAC. For those curves that an EC50 was available, the SE (Std. Error) was acceptable (SE of the logEC50 should be less than 0.5), meaning that the standard errors were not too large. The 95% Confidence Intervals for the EC50 were considered as a measure of error.
# H1975 cells = experiment: Cell viability (CyQuant assay), H1975; type: cell-based; conditions: 72 hours; for HillSlope / LogIC50 / IC50: H1975 viability, best-fit value; for EC50 / IC50: Homo sapiens, NCI-H1975; for EC50: H1975, read-out: EC50 of effect on viability
# Protocol: as §4, §5, §6
SMILES,Downregulated Genes: AZA-Specific / DAC-Specific Genes (number) (H1299 cells [1]; 0.3 μM),Upregulated Genes: AZA-Specific / DAC-Specific Genes (number) (H1299 cells [1]; 0.3 μM),Downregulated Genes: Genes in Common (number) (H1299 cells [1]; 0.3 μM),Upregulated Genes: Genes in Common (number) (H1299 cells [1]; 0.3 μM),Downregulated Genes: AZA-Specific / DAC-Specific Genes (number) (H1299 cells [1]; 1.0 μM),Upregulated Genes: AZA-Specific / DAC-Specific Genes (number) (H1299 cells [1]; 1.0 μM),Downregulated Genes: Genes in Common (number) (H1299 cells [1]; 1.0 μM),Upregulated Genes: Genes in Common (number) (H1299 cells [1]; 1.0 μM),Downregulated Genes: AZA-Specific / DAC-Specific Genes (number) (H1299 cells [1]; 3.0 μM),Upregulated Genes: AZA-Specific / DAC-Specific Genes (number) (H1299 cells [1]; 3.0 μM),Downregulated Genes: Genes in Common (number) (H1299 cells [1]; 3.0 μM),Upregulated Genes: Genes in Common (number) (H1299 cells [1]; 3.0 μM),"Cell cycle distribution (NIM DAPI) (H460 cells [2]; 30-hour treatment, 0.3-10 μM)","Cell cycle distribution (NIM DAPI) (H460 cells [2]; 60-hour treatment, 0.3-10 μM)",Cell cycle distribution (NIM DAPI) (H460 cells [2]; summary of studies),"Cell cycle distribution (NIM DAPI) (H1299 cells [3]; 72-hour treatment, 0.3-10 μM)",Cell cycle distribution (NIM DAPI) (H1299 cells [3]; summary of studies),DNMT1 protein levels (DNMT1; 20 hours),Induction of Histone H2AX phosphorylation (H460 cells [4]),Induction of PARP cleavage (H460 cells [4]; 24 h and 48 h),other results
"Nc1ncn([C@H]2C[C@H](O)[C@@H](CO)O2)c(=O)n1 [DAC, 5-aza-2′-deoxycytidine]",121,214,45,55,170,238,107,135,257,303,153,173,induced accumulation of cells in Sub-G1,slight increase in Sub-G1,induced accumulation of cells in Sub-G1,induced accumulation of cells in G2/M and Sub-G1; also recorded: induced accumulation of cells in Sub-G1 while DAC also caused an increase of cells in G2/M,induced accumulation of cells in Sub-G1 while DAC also caused an increase of cells in G2/M,significantly reduced,did not have any effect,did not have any effect,"Fold more genes modulated than AZA (H1299 cells [1]; H1299 (stated for A549 and H1299 together), 0.3 μM): 4- to 20 fold; Cell cycle distribution (NIM DAPI) (H1299 cells [3]; 48-hour treatment, 0.3-10 μM): induced accumulation of cells in G2/M; DNMT1 depletion (DNMT1; 0.3-10 μM, 48 h (Example 5)): able to cause DNMT1 depletion; Relative potency in reducing DNMT1 levels (DNMT1; 20 hours): more potent than AZA; p21 expression (H460 cells [4]; 24 h and 48 h, dose-dependent): induce; p53 expression (H460 cells [4]; 24 h and 48 h, dose-dependent): induce; HillSlope (A549 cells): −0.4617; LogIC50 (A549 cells): 1.556; EC50 (A549 cells): > 25 µM; IC50 (A549 cells): 35.9 µM; HillSlope (H1975 cells): −0.2958; LogIC50 (H1975 cells): 2.452; EC50 (H1975 cells): > 25 µM; IC50 (H1975 cells): 283 µM"
"Nc1ncn([C@@H]2O[C@H](CO)[C@@H](O)[C@H]2O)c(=O)n1 [AZA, 4-amino-1-β-D-ribofuranosyl-1,3,5-triazin-2(1H)-one]",33,10,45,55,393,435,107,135,991,1368,153,173,induced accumulation of cells in Sub-G1,decrease of cells in G0/G1 with a concomitant increase of cells in Sub-01,induced accumulation of cells in Sub-G1,induced accumulation of cells in G2/M and Sub-G1,induced accumulation of cells in Sub-G1,significantly reduced,induced,induced,Concentrations affecting Histone H2AX phosphorylation and PARP cleavage (H460 cells [4]): above 1 μM; HillSlope (A549 cells): −1.108; LogIC50 (A549 cells): 0.8033; EC50 (A549 cells): 6.4 µM; IC50 (A549 cells): 6.36 µM; HillSlope (H1975 cells): −0.6352; LogIC50 (H1975 cells): 0.8897; EC50 (H1975 cells): 7.8 µM; IC50 (H1975 cells): 7.76 µM
